Numbered stars: 1 amine (or outer) side, 2 acyl side, 3 side chain; on linkers, the order of the positions; unused ones are H or OH. Square brackets hold non-standard residues; d marks the D form. Peptide text beside a SMILES is read from it. * marks the point of attachment. Dip = N[C@H](C(=O)O)C(c1ccccc1)c1ccccc1; X4 = O=C(C(=O)[*:2])[C@H](CC(F)F)N[*:1]; X3 = O=C(c1nc2ccccc2s1)[C@H](CC(F)F)N*; X6 = O=C(c1nc2ccccc2o1)[C@H](CC(F)F)N*; Abu(4,4-F2) = N[C@@H](CC(F)F)C(=O)O; X5 = O=C([C@@H](CC(F)F)N[*:1])[*:2]; X1 = O=C(c1nccs1)[C@H](CC(F)F)N*; X2 = COC(=O)C(=O)[C@H](CC(F)F)N*; X7 = O=C(O)C(=O)[C@H](CC(F)F)N*; Cha = N[C@@H](CC1CCCCC1)C(=O)O; AllylGly = C=CC[C@H](N)C(=O)O; Abu = CC[C@H](N)C(=O)O; NHBn = c1ccc(CN*)cc1
Target: Hepatitis C virus serine protease, NS3/NS4A (Hepatitis C virus, UniProt A3EZI9+D2K2A8)
Sequence (D2K2A8 whole entry): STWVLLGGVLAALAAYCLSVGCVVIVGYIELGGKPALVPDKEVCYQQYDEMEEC
Sequence (A3EZI9 whole entry): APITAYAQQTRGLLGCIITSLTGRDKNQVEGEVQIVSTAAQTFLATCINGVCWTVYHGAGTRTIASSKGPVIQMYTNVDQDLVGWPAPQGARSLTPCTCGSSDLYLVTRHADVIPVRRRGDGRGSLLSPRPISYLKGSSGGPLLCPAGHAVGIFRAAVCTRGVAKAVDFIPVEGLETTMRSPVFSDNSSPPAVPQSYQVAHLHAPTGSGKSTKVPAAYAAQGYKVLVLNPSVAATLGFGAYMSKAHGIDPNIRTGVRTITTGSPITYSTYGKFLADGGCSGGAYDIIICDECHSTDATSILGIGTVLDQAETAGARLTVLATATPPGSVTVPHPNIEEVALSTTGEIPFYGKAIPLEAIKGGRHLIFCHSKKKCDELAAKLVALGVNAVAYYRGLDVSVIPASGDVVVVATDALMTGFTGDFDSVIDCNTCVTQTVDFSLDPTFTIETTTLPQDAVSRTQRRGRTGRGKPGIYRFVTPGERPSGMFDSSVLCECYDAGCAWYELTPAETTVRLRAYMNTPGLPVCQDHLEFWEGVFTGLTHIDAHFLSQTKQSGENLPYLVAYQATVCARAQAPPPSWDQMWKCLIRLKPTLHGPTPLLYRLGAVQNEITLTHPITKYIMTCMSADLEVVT
Assay: Inhibition of hepatitis C virus (HCV) NS3/NS4A serine protease
Assay type: protein-complex assay, Hepacivirus hominis

| Structure (SMILES) | Ki [nM] |
| --- | --- |
| CC(=O)N[C@@H](CC(=O)O)C(=O)N[C@@H](CCC(=O)O)C(=O)N[C@H](C(=O)N[C@@H](CCC(=O)O)C(=O)N[C@@H](CC1CCCCC1)C(=O)N[C@@H](CC(F)F)C(=O)C(=O)O)C(c1ccccc1)c1ccccc1 (Ac-DE[Dip]E[Cha]-X7) | 0.01 |
| CC(=O)N[C@@H](CC(=O)O)C(=O)N[C@@H](CCC(=O)O)C(=O)N[C@H](C(=O)N[C@@H](CCC(=O)O)C(=O)N[C@@H](CC1CCCCC1)C(=O)N[C@@H](CC(F)F)C(=O)c1nc2ccccc2o1)C(c1ccccc1)c1ccccc1 (Ac-DE[Dip]E[Cha]-X6) | 600 |
| CC(=O)N[C@@H](CC(=O)O)C(=O)N[C@@H](CCC(=O)O)C(=O)N[C@H](C(=O)N[C@@H](CCC(=O)O)C(=O)N[C@@H](CC1CCCCC1)C(=O)N[C@H](CC(F)F)C(=O)O)C(c1ccccc1)c1ccccc1 (Ac-DE[Dip]E[Cha][X5]-OH) | 640 |
| CC(=O)N[C@@H](CC(=O)O)C(=O)N[C@@H](CCC(=O)O)C(=O)N[C@H](C(=O)N[C@@H](CCC(=O)O)C(=O)N[C@@H](CC1CCCCC1)C(=O)N[C@@H](CC(F)F)C(=O)c1nccs1)C(c1ccccc1)c1ccccc1 (Ac-DE[Dip]E[Cha]-X1) | 1500 |
| CC(=O)N[C@@H](CC(=O)O)C(=O)N[C@@H](CCC(=O)O)C(=O)N[C@H](C(=O)N[C@@H](CCC(=O)O)C(=O)N[C@@H](CC1CCCCC1)C(=O)N[C@@H](CC(F)F)C(=O)c1nc2ccccc2s1)C(c1ccccc1)c1ccccc1 (Ac-DE[Dip]E[Cha]-X3) | 150 |
| C=CC[C@@H](C=O)NC(=O)[C@H](CC1CCCCC1)NC(=O)[C@H](CCC(=O)O)NC(=O)[C@@H](NC(=O)[C@H](CCC(=O)O)NC(=O)[C@H](CC(=O)O)NC(C)=O)C(c1ccccc1)c1ccccc1 (Ac-DE[Dip]E[Cha][AllylGly]-aldehyde) | 7 |
| CC(=O)N[C@@H](CC(=O)O)C(=O)N[C@@H](CCC(=O)O)C(=O)N[C@H](C(=O)N[C@@H](CCC(=O)O)C(=O)N[C@@H](CC1CCCCC1)C(=O)N[C@H](C=O)CC(F)F)C(c1ccccc1)c1ccccc1 (Ac-DE[Dip]E[Cha][Abu(4,4-F2)]-aldehyde) | 0.5 |
| CC(=O)N[C@@H](CC(=O)O)C(=O)N[C@@H](CCC(=O)O)C(=O)N[C@H](C(=O)N[C@@H](CCC(=O)O)C(=O)N[C@@H](CC1CCCCC1)C(=O)N[C@@H](CC(F)F)C(=O)C(=O)NCc1ccccc1)C(c1ccccc1)c1ccccc1 (Ac-DE[Dip]E[Cha][X4]-NHBn) | 1.5 |
| C=CC[C@H](NC(=O)[C@H](CC1CCCCC1)NC(=O)[C@H](CCC(=O)O)NC(=O)[C@@H](NC(=O)[C@H](CCC(=O)O)NC(=O)[C@H](CC(=O)O)NC(C)=O)C(c1ccccc1)c1ccccc1)C(=O)O (Ac-DE[Dip]E[Cha][AllylGly]-OH) | 100 |
| CC[C@H](NC(=O)[C@H](CC1CCCCC1)NC(=O)[C@H](CCC(=O)O)NC(=O)[C@@H](NC(=O)[C@H](CCC(=O)O)NC(=O)[C@H](CC(=O)O)NC(C)=O)C(c1ccccc1)c1ccccc1)C(=O)O (Ac-DE[Dip]E[Cha][Abu]-OH) | 700 |
| CC(=O)N[C@@H](CC(=O)O)C(=O)N[C@@H](CCC(=O)O)C(=O)N[C@H](C(=O)N[C@@H](CCC(=O)O)C(=O)N[C@@H](CC1CCCCC1)C(=O)N[C@@H](CS)C(=O)O)C(c1ccccc1)c1ccccc1 (Ac-DE[Dip]E[Cha]C-OH) | 40 |
| CC(=O)N[C@@H](CC(=O)O)C(=O)N[C@@H](CCC(=O)O)C(=O)N[C@H](C(=O)N[C@@H](CCC(=O)O)C(=O)N[C@@H](CC1CCCCC1)C(=O)N[C@@H](CC(F)F)C(=O)O)C(c1ccccc1)c1ccccc1 (Ac-DE[Dip]E[Cha][Abu(4,4-F2)]-OH) | 30 |
| COC(=O)C(=O)[C@H](CC(F)F)NC(=O)[C@H](CC1CCCCC1)NC(=O)[C@H](CCC(=O)O)NC(=O)[C@@H](NC(=O)[C@H](CCC(=O)O)NC(=O)[C@H](CC(=O)O)NC(C)=O)C(c1ccccc1)c1ccccc1 (Ac-DE[Dip]E[Cha]-X2) | 2 |

From ChEMBL document CHEMBL1135083, “A designed P1 cysteine mimetic for covalent and non-covalent inhibitors of HCV NS3 protease” (Bioorg Med Chem Lett, 2002)
